For one data set, the target named is T1, rat histamine H3 receptors (Rattus norvegicus, UniProt Q9QYN8).
T1 construct: Frozen rat frontal brain or frozen human post-mortem frontal brain is homogenized; from tissue; host or cells: rat frontal brain membranes
T1 sequence (Q9QYN8 whole entry): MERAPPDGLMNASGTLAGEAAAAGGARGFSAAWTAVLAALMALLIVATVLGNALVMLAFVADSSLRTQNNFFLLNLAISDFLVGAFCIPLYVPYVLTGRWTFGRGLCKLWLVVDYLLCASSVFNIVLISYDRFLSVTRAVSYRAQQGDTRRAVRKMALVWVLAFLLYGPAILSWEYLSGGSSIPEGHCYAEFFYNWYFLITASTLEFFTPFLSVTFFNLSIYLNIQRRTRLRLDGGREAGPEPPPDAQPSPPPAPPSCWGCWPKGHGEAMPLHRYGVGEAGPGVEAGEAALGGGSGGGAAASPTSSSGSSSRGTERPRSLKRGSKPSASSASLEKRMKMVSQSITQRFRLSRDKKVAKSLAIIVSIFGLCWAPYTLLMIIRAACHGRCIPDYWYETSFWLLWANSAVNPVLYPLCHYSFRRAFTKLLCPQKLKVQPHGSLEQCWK
The data set is described as follows: Rat H3 binding, 3H-N-methylhistamine displacement in frontal brain membranes. The note with it: radioligand 1 nM 3H-N-methylhistamine, 1-hour incubation. The procedure: The in vitro affinity of the compounds in the present invention at the rat or human histamine H3 receptors can be determined according to the following procedure. Frozen rat frontal brain or frozen human post-mortem frontal brain is homogenized in 20 volumes of cold 50 mM Tris.HCl containing 2 mM MgCl2 (pH to 7.4 at 4° C.). The homogenate is then centrifuged at 45,000 G for 10 minutes. The supernatant is decanted and the membrane pellet re-suspended by Polytron in cold 50 mM Tris.HCl containing 2 mM MgCl2 (pH to 7.4 at 4 degrees C.) and centrifuged again. The final pellet is re-suspended in 50 mM Tris HCl containing 2 mM MgCl2 (pH to 7.4 at 25 degrees C.) at a concentration of 12 mg/mL. Dilutions of compounds are made in 10% DMSO/50 mM Tris buffer (pH 7.4) (at 10×final concentration, so that the final DMSO concentration is 1%). Incubations are initiated by the addition of membranes (200 microliters) to 96-well V-bottom polypropylene plates containing 25 microliters of drug dilutions and 25 microliters of radioligand (1 nM final concentration ^3H-N-methylhistamine). After a 1-hour incubation, assay samples are rapidly filtered through Whatman GF/B filters and rinsed with ice-cold 50 mM Tris buffer (pH 7.4) using a Skatron cell harvester. Radioactivity is quantified using a BetaPlate scintillation counter.
Turning to `c1cc2c(cc1OCCCN1CCCCC1)CCC(CN1CCCC1)C2` (racemic) [3 (±), (±)-1-[3-(6-Pyrrolidin-1-ylmethyl-5,6,7,8-tetrahydro-naphthalen-2-yloxy)-propyl]-piperidine], the affinity, expressed as Ki, was 8.4 nM.

Turning to `Cl.c1cc2c(cc1OCCCN1CCCC1)CCC(CN1CCCC1)C2` (racemic) [6 (±), (±)-1-[3-(6-Pyrrolidin-1-ylmethyl-5,6,7,8-tetrahydro-naphthalen-2-yloxy)-propyl]-pyrrolidine hydrochloride], the Ki – broadly, the dissociation constant of the complex between target and ligand, obtained from inhibition or displacement – amounted to 9 nM.

For the molecule `Cl.c1cc2c(cc1OCCCN1CCC(N3CCCCC3)CC1)CCC(CN1CCCC1)C2` (racemic) [7 (±), (±)-1′-[3-(6-Pyrrolidin-1-ylmethyl-5,6,7,8-tetrahydro-naphthalen-2-yloxy)-propyl]-[1,4′]bi-piperidinyl hydrochloride], the Ki turned out to be 3 nM. Compared with the last molecule, the Ki is about 3-fold lower.

The molecule `CC1CCCN(CCCOc2ccc3c(c2)CCC(CN2CCCC2)C3)C1` (single isomer, unassigned; (+)) [40 (+), (+)-3-Methyl-1-[3-(6-pyrrolidin-1-ylmethyl-5,6,7,8-tetrahydro-naphthalen-2-yloxy)-propyl]-piperidine] gave a Ki of 8.4 nM.

As to `Fc1ccc(C2CCCN2CCCOc2ccc3c(c2)CCC(CN2CCCC2)C3)cc1` (single isomer, unassigned; (+)) [71 (+), (+)-2-(4-Fluorophenyl)-1-[3-(6-pyrrolidin-1-ylmethyl-5,6,7-8-tetrahydro-naphthalen-2-yloxy)-propyl]-pyrrolidine], the affinity corresponds to a Ki of 9.6 nM.

`Cl.c1cc2c(cc1OCCCN1CCCCC1)CCC(CN1CCCC1)C2` (single isomer, unassigned; (-)) [10 (−), (−)-1-[3-(6-Pyrrolidin-1-ylmethyl-5,6,7,8-tetrahydro-naphthalen-2-yloxy)-propyl]-piperidine hydrochloride] showed a Ki of 1.1 nM.

Molecule `CC1(C)CCCN(CCCOc2ccc3c(c2)CCC(CN2CCCC2)C3)C1.Cl` (single isomer, unassigned; (-)) [15 (−), (−)-3,3-Dimethyl-1-[3-(6-pyrrolidin-1-ylmethyl-5,6,7,8-tetrahydro-naphthalen-2-yloxy)-propyl]-piperidine hydrochloride] returned a Ki of 5 nM. This Ki lies about 4.5-fold higher than the previous one.

`Cl.c1cc2c(cc1OCCCNC1CCC3(CCCCC3)CC1)CCC(CN1CCCC1)C2` (single isomer, unassigned; (-)) [16 (−), (−)-[3-(6-Pyrrolidin-1-ylmethyl-5,6,7,8-tetrahydro-naphthalen-2-yloxy)-propyl]-spiro[5.5]undec-3-ylamine hydrochloride]: affinity was put at a Ki of 7.2 nM.

The molecule `Clc1ccc(CNCCCOc2ccc3c(c2)CCC(CN2CCCC2)C3)cc1` (single isomer, unassigned; (-)) [24 (−), (−)-(4-Chlorobenzyl)-[3-(6-pyrrolidin-1-ylmethyl-5,6,7,8-tetrahydro-naphthalen-2-yloxy)-propyl]-amine] showed a Ki of 0.84 nM.

Consider `Clc1ccc(CNCCCOc2ccc3c(c2)CCC(CN2CCCC2)C3)cc1Cl` (single isomer, unassigned; (-)) [27 (−), (−)-(3,4-Dichlorobenzyl)-[3-(6-pyrrolidin-1-ylmethyl-5,6,7,8-tetrahydro-naphthalen-2-yloxy)-propyl]-amine], for which the affinity corresponds to a Ki of 1.58 nM.

On to `c1ccc(CNCCCOc2ccc3c(c2)CCC(CN2CCCC2)C3)cc1` (single isomer, unassigned; (-)) [28 (−), (−)-Benzyl-[3-(6-pyrrolidin-1-ylmethyl-5,6,7,8-tetrahydro-naphthalen-2-yloxy)-propyl]-amine], for which the affinity corresponds to a Ki of 4.7 nM.

The molecule `Fc1ccc(CNCCCOc2ccc3c(c2)CCC(CN2CCCC2)C3)cc1` (single isomer, unassigned; (-)) [32 (−), (−)-(4-Fluorobenzyl)-[3-(6-pyrrolidin-1-ylmethyl-5,6,7,8-tetrahydro-naphthalen-2-yloxy)-propyl]-amine] had a Ki of 1.25 nM.

Turning to `CC1CCCN(CCCOc2ccc3c(c2)CCC(CN2CCCC2)C3)C1` (single isomer, unassigned; (-)) [40 (−), (−)-3-Methyl-1-[3-(6-pyrrolidin-1-ylmethyl-5,6,7,8-tetrahydro-naphthalen-2-yloxy)-propyl]-piperidine], the inhibition constant Ki worked out at 3.54 nM. Compared with the last molecule, the Ki is about 2.8-fold higher.

The molecule `CC1CCCCN1CCCOc1ccc2c(c1)CCC(CN1CCCC1)C2` (single isomer, unassigned; (-)) [41 (−), (−)-2-Methyl-1-[3-(6-pyrrolidin-1-ylmethyl-5,6,7,8-tetrahydro-naphthalen-2-yloxy)-propyl]-piperidine] displayed a Ki of 5.89 nM.

Molecule `CC1CCN(CCCOc2ccc3c(c2)CCC(CN2CCCC2)C3)CC1` (single isomer, unassigned; (-)) [42 (−), (−)-4-Methyl-1-[3-(6-pyrrolidin-1-ylmethyl-5,6,7,8-tetrahydro-naphthalen-2-yloxy)-propyl]-piperidine] came in with a Ki of 4.32 nM.

Take `CC(CN1CCOCC1)NCCCOc1ccc2c(c1)CCC(CN1CCCC1)C2` (single isomer, unassigned; (-)) [51 (−), (−)-(1-Methyl-2-morpholin-4-ylethyl)-[3-(6-pyrrolidin-1-ylmethyl-5,6,7,8-tetrahydro-naphthalen-2-yloxy)-propyl]-amine]: the Ki worked out at 6.2 nM. This Ki and that of the molecule before are within 1.5-fold of each other.

For `CN(CCCOc1ccc2c(c1)CCC(CN1CCCC1)C2)Cc1ccco1` (single isomer, unassigned; (-)) [55 (−), (−)-Furan-2-ylmethyl-[3-(6-pyrrolidin-1-ylmethyl-5,6,7,8-tetrahydro-naphthalen-2-yloxy)-propyl]-methylamine], the Ki came out at 4.5 nM.

Molecule `c1cc2c(cc1OCCCNC1CCCCC1)CCC(CN1CCCC1)C2` (single isomer, unassigned; (-)) [64 (−), (−)-[3-(6-pyrrolidin-1-ylmethyl-5,6,7,8-tetrahydro-naphthalen-2-yloxy)-propyl]-cyclohexyl-amine] displayed a Ki of 4.36 nM.

In turn, `c1cc2c(cc1OCCCN1CC3CCCC1C3)CCC(CN1CCCC1)C2` (single isomer, unassigned; (-)) [65 (−), (−)-6-[3-(6-Pyrrolidin-1-ylmethyl-5,6,7,8-tetrahydro-naphthalen-2-yloxy)-propyl]-6-azabicyclo-[3.2.1]octane] showed a Ki of 2.11 nM.

The molecule `Fc1ccc(CNCCCOc2ccc3c(c2)CCC(CN2CCCC2)C3)cc1F` (single isomer, unassigned; (-)) [77 (−), (−)-(3,4-Difluorobenzyl)-[3-(6-pyrrolidin-1-ylmethyl-5,6,7,8-tetrahydro-naphthalen-2-yloxy)-propyl]-amine] showed a Ki of 1.95 nM.

`Clc1ccc(CNCCCOc2ccc3c(c2)CCC(CN2CCCC2)C3)c(Cl)c1` (single isomer, unassigned; (-)) [79 (−), (−)-(2,4-Dichlorobenzyl)-[3-(6-pyrrolidin-1-ylmethyl-5,6,7,8-tetrahydro-naphthalen-2-yloxy)-propyl]-amine] returned a Ki of 1.9 nM.

Take `CC1CC(C)CN(CCCOc2ccc3c(c2)CCC(CN2CCCC2)C3)C1` (single isomer, unassigned; (-)) [81 (−), (−)-3,5-Dimethyl-1-[3-(6-pyrrolidin-1-ylmethyl-5,6,7,8-tetrahydro-naphthalen-2-yloxy)-propyl]-piperidine]: the Ki stood at 9.14 nM. Against the preceding molecule, the Ki is about 4.8-fold higher.

Test system in another data set: not given
Experiment: not given
Settings: not given
For `Cl.c1cc2c(cc1OCCCNC1CC3CCC1C3)CCC(CN1CCCC1)C2` (stereo not shown), the melting point (as a rule, the temperature of the solid-liquid transition) was in the range of 265.4 to 266.3 °C.

In turn, `Cl.c1cc2c(cc1OCCCN1CCC3(CCCCC3)CC1)CCC(CN1CCCC1)C2` (stereo not shown) had a melting point of 287.6 to 290.2 °C.

`CN(C)CCOc1ccc2c(c1)CCC(CN1CCCC1)C2.Cl` (racemic) yielded a melting point of 131.6 to 132.8 °C.

In the case of `Cl.NC(=O)C1CCN(CCCOc2ccc3c(c2)CCC(CN2CCCC2)C3)CC1` (racemic), the melting point is 211 to 213 °C.

As to `CN(C)CCCOc1ccc2c(c1)CCC(CN1CCCC1)C2.Cl` (racemic) [1], the melting point lay within 187.7 to 188.7 °C.

With `c1cc2c(cc1OCCCN1CCCCC1)CCC(CN1CCCC1)C2` (racemic) [3 (±), (±)-1-[3-(6-Pyrrolidin-1-ylmethyl-5,6,7,8-tetrahydro-naphthalen-2-yloxy)-propyl]-piperidine], the melting point lay within 180 to 181.4 °C.

In turn, `Cl.c1cc2c(cc1OCCCN1CCOCC1)CCC(CN1CCCC1)C2` (racemic) [4] showed a melting point of 259.9 to 261.4 °C.

The molecule `Cl.c1cc2c(cc1OCCCN1CCCC1)CCC(CN1CCCC1)C2` (racemic) [6 (±), (±)-1-[3-(6-Pyrrolidin-1-ylmethyl-5,6,7,8-tetrahydro-naphthalen-2-yloxy)-propyl]-pyrrolidine hydrochloride] gave a melting point of 149.4 to 150.5 °C.

On to `Cl.c1cc2c(cc1OCCCN1CCC(N3CCCCC3)CC1)CCC(CN1CCCC1)C2` (racemic) [7 (±), (±)-1′-[3-(6-Pyrrolidin-1-ylmethyl-5,6,7,8-tetrahydro-naphthalen-2-yloxy)-propyl]-[1,4′]bi-piperidinyl hydrochloride], for which the melting point is 284.8 °C (dec.).

Turning to `NC(=O)C1CCCN(CCCOc2ccc3c(c2)CCC(CN2CCCC2)C3)C1` (racemic) [Example 9, (±)-1-[3-(6-Pyrrolidin-1-ylmethyl-5,6,7,8-tetrahydro-naphthalen-2-yloxy)-propyl]-piperidine-3-carboxylic acid amide], the melting point fell in the range of 102 to 103.2 °C.

Consider `Cl.c1cc2c(cc1OCCCN1CCCCC1)CCC(CN1CCCC1)C2` (single isomer, unassigned; (-)) [10 (−), (−)-1-[3-(6-Pyrrolidin-1-ylmethyl-5,6,7,8-tetrahydro-naphthalen-2-yloxy)-propyl]-piperidine hydrochloride], for which the melting point was in the range of 286.6 to 286.8 °C.

With `CC1(C)CCCN(CCCOc2ccc3c(c2)CCC(CN2CCCC2)C3)C1.Cl` (single isomer, unassigned; (-)) [15 (−), (−)-3,3-Dimethyl-1-[3-(6-pyrrolidin-1-ylmethyl-5,6,7,8-tetrahydro-naphthalen-2-yloxy)-propyl]-piperidine hydrochloride], the melting point lay in the range of 202 to 204 °C.

Regarding `Cl.c1cc2c(cc1OCCCNC1CCC3(CCCCC3)CC1)CCC(CN1CCCC1)C2` (single isomer, unassigned; (-)) [16 (−), (−)-[3-(6-Pyrrolidin-1-ylmethyl-5,6,7,8-tetrahydro-naphthalen-2-yloxy)-propyl]-spiro[5.5]undec-3-ylamine hydrochloride], the melting point lay within 291.5 to 292.9 °C.

`Cl.c1cc2c(cc1OCCCN1CCOCC1)CCC(CN1CCCC1)C2` (stereo not shown) [5] came in with a melting point of 255.4 to 256.4 °C.

`Cl.c1cc2c(cc1OCCCN1CCOCC1)CCC(CN1CCCC1)C2` (stereo not shown) [11] displayed a melting point of 281.8 to 282.7 °C.

Molecule `Cl.c1cc2c(cc1OCCCN1CCCCC1)CCC(CN1CCCC1)C2` (stereo not shown) [12] displayed a melting point of 256.6 to 258.4 °C.

`CN(C)CCCOc1ccc2c(c1)CCC(CN1CCCC1)C2.Cl` (stereo not shown) [13]: the melting point is 230.6 to 232.8 °C.

As for `Cl.c1cc2c(cc1OCCCN1CCOCC1)CCC(CN1CCCC1)C2` (stereo not shown) [14], the melting point was 249.6 to 250.4 °C.

Values taken from patent US20060094719A1, “Tetralin histamine-3 receptor antagonists” (Pfizer Inc, priority 2004, published 2006).
